Test results: patent publication US11419833B2, “Nasally administered pharmaceutical composition for the treatment of epilepsy and related disorders” (priority 2020, dated 2022)
Entries after “also recorded” stand apart in the source; their conditions may differ.

Assays:
Cfos = Cfos gene expression (qRT-PCR) in PTZ-induced acute seizure; assay type: in vivo, rats; conditions: cortex and hippocampus, p<0.01
From the text: (§1) Rats were decapitated after recording the EEG to collect the brain samples. Cortex and hippocampus regions of brain were excised out to conduct analysis of gene expression using qRT-PCR. The tissue samples were processed for RNA isolation followed by synthesis of cDNA using Revert Aid First strand cDNA synthesis kit (Thermo Scientific). The template cDNA were then used for the amplification of BDNF and Cfos using SYBER green qPCR Master mix (Thermo Scientific). The relative gene expression was determined by comparing 2-ΔΔCt values normalized to β-actin.

BDNF = BDNF gene expression (qRT-PCR) in PTZ-induced acute seizure; assay type: in vivo, rats; conditions: cortex and hippocampus, p<0.01
From the text: as §1

[1] = system: PTZ-induced epileptiform activity; experiment: PTZ-induced epileptiform activity, intraperitoneal administration (EEG protocol); assay type: in vivo, rats; conditions: for spike discharge: Z-acid 150 mg/kg i.p. or diazepam 5 mg/kg, 10 min after PTZ 100 mg/kg, vs PTZ-injected animals, P<0.01
Experimental: In this set of experiment, effect of Z-acid was investigated on PTZ-induced epileptiform activity. Rats (210±10 g) were divided into six groups as control, diazepam, Z-acid, PTZ, PTZ+diazepam, PTZ+Z-acid with 6 sample size in each group. PTZ was injected at the dose of 100 mg/kg. Z-acid was intraperitoneally injected in anesthetized rats at the dose of 150 mg/kg whereas drug control group was treated with 5 mg/kg dose of diazepam. Saline was used as placebo. PTZ was prepared in saline whereas Z-acid was dissolved in 0.1 N NaOH. EEG was recorded from cortical region of the rat brain.
The protocol was started by anesthetizing rat followed by fixing the animal in stereotaxic apparatus for surgery. The skin was removed to expose the bregma and lambda region of the skull. Three holes of 0.6 mm diameter were drilled with the help of a manual drill. One hole was made on the parietal lobe for the placement of active electrode whereas two were made on the occipital lobes for reference and ground electrodes. A screw with the length of 5 mm and diameter of 0.5 mm was inserted on each hole and electrodes were then connected with the EEG recording system. The recording was started by monitoring the baseline EEG recording for 5 min. After 5 min of noise-free recording, PTZ was injected to induce acute seizures. The EEG recording after the injection of PTZ was continued for 10 min to observe the induction of epileptiform activity. […] After 10 min of recording, Z-acid was injected intraperitoneally to observe its effects on PTZ-induced epileptiform activity.

glutamate levels = experiment: Glutamate levels (ELISA) in PTZ-induced acute seizure; assay type: in vivo, rats; conditions: cortex and hippocampus, p<0.01
From the text: Glutamate levels were also estimated in cortex and hippocampus following the administration of Z-acid formulation I. The glutamate levels were estimated using ELISA kit method (Bioassay Technology Laboratory, E1474Ra).

PTZ-induced kindling = experiment: scPTZ-induced chemical kindling model of epileptogenesis; assay type: in vivo, NMRI mice
Experimental: The chemical kindling was induced according to the modified method of De Sarro i.e. by repeated treatment of mice with sub-convulsive dose of pentylenetetrazole (subcutaneous, 50 mg/kg) on alternate days. Four doses of Z-acid (150 mg/kg/day, 200 mg/kg/day, 250 mg/kg/day, and 300 mg/kg/day) were administered daily (intraperitoneal). However, on the day of PTZ administration, animals were treated with the Z-acid 30 minutes before administering PTZ. After PTZ was injected, each animal was placed separately in a clear plexiglass cage for close observations for 1 hour. The drug control groups received daily valproic acid. The Racine scoring categorization of epileptic seizures pattern was used to monitor the animals (Table 1). The animals showing score 4-5 were considered to be fully kindled. The cumulative kindling score was then calculated. Experiments were terminated once the animals were fully kindled. At the end of each experiment, animals were humanely sacrificed.

[2] = Sub-chronic toxicity profile, intraperitoneal, 3 months; assay type: in vivo
Experimental: To evaluate the sub-chronic toxicity profile of Z-acid the compound was administered daily into mice at the dose of 300 mg/kg (intraperitoneal) for a period of 3 months. The animals were divided into […] (8 per group) as outlined below: • Group I normal control; • Group II treated daily for 1 week; • Group III treated daily for 2 weeks; • Group IV treated daily for 1 month; • Group V treated daily for 2 months; • Group VI treated daily for 3 months
At the end of the study, animals were anaesthetized, dissected and gross examination of vital organs were performed, along with serum and whole brain samples collection. Serum and brain sample were stored in −20° C. for further examination.

[3] = Pharmacokinetics in plasma and brain after single intraperitoneal dose (GC/MS); assay type: in vivo; conditions: mice, 300 mg/kg intraperitoneal
Experimental: The pharmacokinetics of Z-acid in both plasma and brain after a single intraperitoneal dose of Z-acid (300 mg/kg) was studied in mice. Animals were sacrificed at 5 min, 15 min, 30 min, 60 min, 120 min, 180 min, and 240 min after the dose administration (n=4 for each time point). Blood samples were obtained in heparin containing vacutainers. The control group consists of the animals receiving no other treatment and this serve as blank plasma and aided in optimization and validation of the GC/MS method. The blood samples were later centrifuged to obtain plasma which was stored at −20° C. for further processing. Likewise, the brain samples were also collected from the sacrificed animals and stored at −20° C. for further processing on GC-MS.

Stability = assay type: physicochemical
PTZ-induced seizures = experiment: Acute subcutaneous PTZ-induced seizure test; assay type: in vivo, mice
Experimental: Anticonvulsant effects of the test compounds were evaluated using subcutaneous PTZ-induced seizure test (subcutaneous PTZ). […] The Z-acid and its analogs were administered intraperitoneally at least 30 min before subcutaneous administration of convulsive dose of PTZ (110 mg/kg). […] Latency to PTZ-induced threshold seizures was also calculated. The latency to threshold seizure is defined as the interval between the time of the PTZ-injection and the occurrence of first episode of threshold seizure. Protection of testing material against PTZ-induced mortality within 24 hours was also evaluated. […] NMRI male mice weighing between 18-22 g were selected for the study. PTZ 110 mg/Kg was administered to the PTZ group and observed the first myoclonic jerk and HLTE.

Solubility in water = assay type: physicochemical
[4] = intraperitoneal experiment, vs PTZ alone
[5] = intranasal pre-treatment (Formulation I), vs PTZ
[6] = 150 mg/kg intraperitoneal, 10 min after PTZ
[7] = 300, 400 and 500 mg/Kg intraperitoneal, 30 min before PTZ 110 mg/Kg, compared to PTZ group

Q: What does the source list for `CN1C(=O)CN=C(c2ccccc2)c2cc(Cl)ccc21` [diazepam, reference compound]?
A: Cfos gene expression (Cfos; i.p. treatment, vs PTZ alone): significantly reduced; BDNF gene expression (BDNF; i.p. treatment, vs PTZ alone): significantly reduced; spike discharge [1]: significantly reduced; glutamate levels (glutamate levels; [4]): significantly reduced

Q: With `CCCC(CCC)C(=O)O` [valproic acid, reference compound] as the compound, how does the “seizure pattern till the end of the kindling protocol” value (PTZ-induced kindling; drug control, daily, compared to PTZ-kindled control group) read?
A: The value was “did not exhibit any seizure pattern”.

Q: For `CC1=C/C(=C\C(=O)O)CC(C)(C)C1` [Z-acid, (Z)-2-(3,5,5-trimethyl-2-cyclohexen-1-ylidene) acetic acid], which Cfos gene expression (Cfos; i.p. treatment, vs PTZ alone) is on record?
A: The Cfos gene expression was “significantly reduced”.

Q: What about the Cfos gene expression (Cfos; [5]) of the same compound?
A: Its Cfos gene expression is “significantly reduced”.

Q: What about the BDNF gene expression (BDNF; i.p. treatment, vs PTZ alone) of the same compound?
A: Its BDNF gene expression is “significantly reduced”.

Q: And the BDNF gene expression (BDNF; [5])?
A: Its BDNF gene expression is “significantly reduced”.

Q: What about the “time after administration at which PTZ-induced spikes were significantly reduced” value [1, 6] of the same compound?
A: Its value is 5 min.

Q: And the “time after treatment at which PTZ-induced spikes completely diminished” value [1, 6]?
A: The value was 7 to 10 min.

Q: And the spike discharge [1]?
A: Its spike discharge is “significantly reduced”.

Q: And the “signs of toxicity, gross anatomy of organs” value ([2]; 300 mg/kg daily intraperitoneal, 3 months)?
A: The value was “did not find any sign of toxicity; also recorded: no signs of toxicity”.

Q: And the “LFT profile, CBC and LDH, creatinine, and urea levels” value ([2]; blood samples after 3 months daily dosing 300 mg/kg)?
A: The value was “normal range”.

Q: What about the “persistence or sequestration in brain” value ([3]; brain) of the same compound?
A: Its value is “No evidence”.

Q: What about the “time to disappearance from brain” value ([3]; brain) of the same compound?
A: The value was no more than 1 h.

Q: And the “time to peak concentration in brain” value ([3]; brain)?
A: The value was no more than 15 min.

Q: And the “apparent volume of distribution” value ([3]; plasma)?
A: The value was 10 L.

Q: What about the “time to disappearance from plasma” value ([3]; plasma) of the same compound?
A: Its value is 2 to 2.5 h.

Q: What about the “time to peak concentration in plasma” value ([3]; plasma) of the same compound?
A: Its value is no more than 5 min.

Q: What about the half-life ([3]; mouse, ip, plasma) of the same compound?
A: The half-life was 60 min.

Q: And the glutamate levels (glutamate levels; intranasal experiment (Formulation I), vs PTZ)?
A: The glutamate levels was “significantly reduced”.

Q: What about the glutamate levels (glutamate levels; [4]) of the same compound?
A: The glutamate levels was “significantly reduced”.

Q: And the “development of kindling induced by scPTZ administration” value (PTZ-induced kindling; 300 mg/kg daily intraperitoneal, PTZ 50 mg/kg on alternate days)?
A: The value was “complete inhibition”.

Q: What about the “active dose able to inhibit the process of epileptogenesis” value (PTZ-induced kindling; daily intraperitoneal, doses tested 150-300 mg/kg/day) of the same compound?
A: The value was 300 mg/kg body weight.

Q: And the “stability under all conditions used in various experiments” value (Stability)?
A: Its value is “stable”.

Q: And the “stability in different organic solvents” value (Stability; room temperature and high temperature)?
A: Its value is “stable”.

Q: And the HLTE (PTZ-induced seizures; [7])?
A: The HLTE was “prevented HLTE in all the animals”.

Q: What about the “onset of myoclonic seizure” value (PTZ-induced seizures; [7]) of the same compound?
A: The value was “significantly delayed”.

Q: What about the seizure scoring (PTZ-induced seizures; 300, 400 and 500 mg/Kg, compared to PTZ group (FIG. 1)) of the same compound?
A: Its seizure scoring is “decreased the number seizure scoring significantly and dose dependently”.

Q: For `CC1=CC(=CC(=O)O)CC(C)(C)C1` (single isomer, unassigned) [E/Z isomeric mixture, (E/Z)-2,2′-(3,5,5-trimethyl-2-cyclohexen-1-ylidene) acetic acid], which solubility in water (Solubility in water) is on record?
A: Its solubility in water is “poorly soluble”.
